# Experimental data reported in US10681909B2, “Herbicidal triazoles” (FMC Corporation, priority 2014, dated 2020).
# Experiments:
# blackgrass = test: Test A postemergence; type: in vivo, Alopecurus myosuroides; conditions: 0 to 100 scale (0 no effect, 100 complete control), approx. 10 d
# How it was run: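 Visual 0–100 ratings (0 no effect, 100 complete control) made roughly 10 days after treatment, comparing greenhouse-grown plants to untreated controls. Formulated test chemicals, with surfactant, went either as directed soil spray at planting or onto 2–10 cm seedlings bearing one to two leaves.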
# bromegrass, down = test: Test D preemergence; type: in vivo, Bromus tectorum; conditions: for Plant response rating (0 to 100), Bromegrass, Down: 16 g ai/ha, 0 is no effect, 100 is complete control; for Plant response rating: Bromegrass, Down: scale 0 to 100
# Excerpt: (§1) Seeds of plant species selected from bluegrass (annual bluegrass, Poa annua), blackgrass (Alopecurus myosuroides), canarygrass (Phalaris minor), chickweed (common chickweed, Stellaria media), galium (catchweed bedstraw, Galium aparine), bromegrass, down (downy bromegrass, Bromus tectorum), Russian thistle (Salsola kali), field poppy (Papaver rhoeas), field violet (Viola arvensis), foxtail, green (green foxtail, Setaria viridis), deadnettle (henbit deadnettle, Lamium amplexicaule), ryegrass, Ital. (Italian ryegrass, Lolium multiflorum), kochia (Kochia scoparia), lambsquarters (Chenopodium album), oilseed rape (Brassica napus), pigweed (Amaranthus retroflexus), chamomile (scentless chamomile, Matricaria inodora), speedwell (bird's-eye speedwell, Veronica persica), barley, spring (spring barley, Hordeum vulgare), wheat, spring (spring wheat, Triticum aestivum), buckwheat, wild (wild buckwheat, Polygonum convolvulus), wild mustard (Sinapis arvensis), oat, wild (wild oat, Avena fatua), radish, wild (wild radish, Raphanus raphanistrum), […]), barley, winter (winter barley, Hordeum vulgare), and wheat, winter (winter wheat, Triticum aestivum) were planted into a silt loam soil and treated preemergence with test chemicals formulated in a non-phytotoxic solvent mixture which included a surfactant. At the same time, these species were planted in pots containing Sunshine Redi-Earth® planting medium comprising spaghnum peat moss, vermiculite, starter nutrients and dolomitic limestone and treated with postemergence applications of the test chemicals formulated in the same manner. Plants ranged in height from 2 to 18 cm (1- to 4-leaf stage). Treated plants and controls were maintained in a controlled growth environment for 14 to 21 d after which time all species were compared to controls and visually evaluated. […] A dash (-) response means no test result.
# waterhemp = test: Test C preemergence; type: in vivo, Amaranthus rudis; conditions: for Waterhemp plant response rating (0 to 100): Preemergence, visual rating after 13 to 15 d; for Plant response rating (scale of 0 to 100 where 0 is no effect and 100 is complete control): Waterhemp, preemergence, 250 g ai/ha
# Excerpt: (§2) Seeds of plant species selected from blackgrass (Alopecurus myosuroides), ryegrass, Italian (Italian ryegrass, Lolium multiflorum), wheat (winter wheat, Triticum aestivum), galium (catchweed bedstraw, Galium aparine), corn (Zea mays), crabgrass, large (large crabgrass, Digitaria sanguinalis), foxtail, giant, (giant foxtail, Setaria faberii), johnsongrass (Sorghum halepense), lambsquarters (Chenopodium album), morningglory (Ipomoea coccinea), nutsedge, yellow (yellow nutsedge, Cyperus esculentus), pigweed (Amaranthus retroflexus), ragweed (common ragweed, Ambrosia elatior), soybean (Glycine max), barnyardgrass (Echinochloa crus-galli), oilseed rape (Brassica napus), waterhemp (common waterhemp, Amaranthus rudis), and velvetleaf (Abutilon theophrasti) were planted into a blend of loam soil and sand and treated preemergence with test chemicals formulated in a non-phytotoxic solvent mixture which included a surfactant. At the same time, plants selected from these crop and weed species and also chickweed (common chickweed, Stellaria media), oat, wild (wild oat, Avena fatua), and kochia (Kochia scoparia), were planted in pots containing Sunshine Redi-Earth® planting medium comprising spaghnum peat moss, vermiculite, starter nutrients and dolomitic limestone and treated with postemergence applications of test chemicals formulated in the same manner. Plants ranged in height from 2 to 18 cm (1- to 4-leaf stage) for postemergence treatments. […] A dash (-) response means no test result.
# windgrass = test: Test D postemergence; type: in vivo, Apera spica-venti; conditions: scale 0 to 100
# Excerpt: as §1
# radish, wild = test: Test D preemergence; type: in vivo, Raphanus raphanistrum; conditions: for Plant response rating: Radish, Wild: scale 0 to 100; for Plant response rating (0 to 100), Radish, Wild: 16 g ai/ha, 0 is no effect, 100 is complete control
# Excerpt: as §1
# field poppy = test: Test D preemergence; type: in vivo, Papaver rhoeas; conditions: for Plant response rating (0 to 100), Field Poppy: 16 g ai/ha, 0 is no effect, 100 is complete control; for Plant response rating: Field Poppy: scale 0 to 100
# Excerpt: as §1
# nutsedge, yellow = test: Test C preemergence; type: in vivo, Cyperus esculentus; conditions: for Plant response rating (scale of 0 to 100 where 0 is no effect and 100 is complete control): Nutsedge, Yellow, preemergence; for Nutsedge, Yellow plant response rating (0 to 100): Preemergence, visual rating after 13 to 15 d
# Excerpt: as §2
SMILES,"Plant response rating, Blackgrass (blackgrass; 125 g ai/ha)","Plant response rating (0 to 100), Bromegrass, Down (bromegrass, down)","Plant response rating: Bromegrass, Down (bromegrass, down; 31 g ai/ha)","Plant response rating: Bromegrass, Down (bromegrass, down; 62 g ai/ha)","Plant response rating: Bromegrass, Down (bromegrass, down; 125 g ai/ha)",Waterhemp plant response rating (0 to 100) (waterhemp; 31 g ai/ha),Waterhemp plant response rating (0 to 100) (waterhemp; 62 g ai/ha),Plant response rating (scale of 0 to 100 where 0 is no effect and 100 is complete control) (waterhemp),Plant response rating: Windgrass (windgrass; 16 g ai/ha),Plant response rating: Windgrass (windgrass; 31 g ai/ha),Plant response rating: Windgrass (windgrass; 62 g ai/ha),Plant response rating: Windgrass (windgrass; 125 g ai/ha),"Plant response rating: Radish, Wild (radish, wild; 62 g ai/ha)","Plant response rating: Radish, Wild (radish, wild; 125 g ai/ha)","Plant response rating (0 to 100), Field Poppy (field poppy)",Plant response rating: Field Poppy (field poppy; 62 g ai/ha),Plant response rating: Field Poppy (field poppy; 125 g ai/ha),"Plant response rating (scale of 0 to 100 where 0 is no effect and 100 is complete control) (nutsedge, yellow; 125 g ai/ha)","Plant response rating (scale of 0 to 100 where 0 is no effect and 100 is complete control) (nutsedge, yellow; 250 g ai/ha)","Nutsedge, Yellow plant response rating (0 to 100) (nutsedge, yellow; 31 g ai/ha)",also measured
FC(F)(F)COc1nc(-c2ccc(Cl)cc2)nn1Cc1ccnc(C(F)(F)F)c1 [Compound 31],50,25,25,50,55,100,100,100,60,70,75,80,100,100,95,100,100,5,5,0,"Plant response rating, Blackgrass (blackgrass; 500 g ai/ha): 80; Nutsedge, Yellow plant response rating (0 to 100) (nutsedge, yellow; 62 g ai/ha): 0"
"CCOc1nc(-c2ccc(C(F)(F)F)cc2)nn1Cc1ccnc(C(F)(F)F)c1 [Compound 35, 4-[[5-ethoxy-3-[4-(trifluoromethyl)phenyl]-1H-1,2,4-triazole-1-yl]methyl]-2-(trifluoromethyl)pyridine]",50,15,40,60,75,100,100,100,55,75,80,90,85,100,100,100,100,0,0,0,"Plant response rating, Blackgrass (blackgrass; 31 g ai/ha): 30; Plant response rating (0 to 100), Radish, Wild (radish, wild): 65; Nutsedge, Yellow plant response rating (0 to 100) (nutsedge, yellow; 62 g ai/ha): 0"
CCOc1nc(-c2ccccc2)nn1Cc1ccnc(C(F)(F)F)c1 [Compound 27],70,0,20,65,70,100,100,100,60,65,70,70,85,100,95,100,100,35,60,5,"Plant response rating, Blackgrass (blackgrass; 500 g ai/ha): 80; Plant response rating (0 to 100), Radish, Wild (radish, wild): 75; Nutsedge, Yellow plant response rating (0 to 100) (nutsedge, yellow; 62 g ai/ha): 10"
Fc1ccc(-c2nc(OCC(F)(F)F)n(Cc3ccnc(C(F)(F)F)c3)n2)cc1 [Compound 30],30,35,40,55,70,100,100,100,45,65,75,85,95,100,95,100,100,0,10,0,"Plant response rating, Blackgrass (blackgrass; 500 g ai/ha): 80; Plant response rating (0 to 100), Radish, Wild (radish, wild): 65; Nutsedge, Yellow plant response rating (0 to 100) (nutsedge, yellow; 62 g ai/ha): 0"
